Consider five compounds from BindingDB's records for doi:10.1021/jm00090a012 (National Institute of Diabetes and Digestive and Kidney …, 1992).

Structures are written as SMILES.

As usually defined, the Ki is the dissociation constant of the complex between target and ligand, obtained from inhibition or displacement. A lower Ki goes with a stronger hold on the target.

A short description of experiment [1]: Binding affinity against sigma receptor from guinea pig brain, using [3H](+)-pentazocine as radioligand.
A short description of experiment [2]: Binding affinity against sigma receptor from guinea pig brain, using [3H](+)-3-PPP as radioligand.
The target of experiment [3] is Sigma non-opioid intracellular receptor 1 (Cavia porcellus) (UniProt Q60492). The experiment is described as follows: Binding affinity against sigma receptor from guinea pig brain, using [3H](+)-pentazocine as radioligand.
Sequence of Sigma non-opioid intracellular receptor 1 (Cavia porcellus) (Q60492 whole entry, looked up): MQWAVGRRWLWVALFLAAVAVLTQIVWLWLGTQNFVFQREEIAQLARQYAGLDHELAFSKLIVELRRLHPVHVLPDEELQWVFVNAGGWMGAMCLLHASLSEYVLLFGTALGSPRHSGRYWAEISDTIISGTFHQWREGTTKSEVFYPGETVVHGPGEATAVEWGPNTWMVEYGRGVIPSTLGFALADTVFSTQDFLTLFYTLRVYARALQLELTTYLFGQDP
The nature of experiment [4]: Binding affinity against phencyclidine (PCP) receptor from guinea pig brain, using [3H]TCP as radioligand.

`FCCCCCN1CCN(CCc2ccc(Cl)c(Cl)c2)CC1`: the Ki in experiment [1] worked out at 0.52 nM; in experiment [2] it was 0.86 nM.

Consider `FCCCN(CCc1ccc(Cl)c(Cl)c1)CCN1CCCC1`, for which the Ki in experiment [2] was 4.22 nM.

In experiment [3], `FCCCN1CCN(CCc2ccc(Cl)c(Cl)c2)CC1` displayed a Ki of 0.39 nM.

`Clc1ccc(CCN2CCN(CCCI)CC2)cc1Cl`: the Ki was determined as 1.2 nM in experiment [1] and 1.3 nM in experiment [2].

Compound `CCCCCN1CC[C@@]2(C)c3cc(O)ccc3CC1[C@H]2C` [(6R,11S)-6,11-Dimethyl-3-pentyl-1,2,3,4,5,6-hexahydro-2,6-methano-benzo[d]azocin-8-ol] returned an inhibition constant (Ki) in experiment [4] of 9.04 µM. This counts as single-digit micromolar.
